Data published in PubChem BioAssay (NCI).
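The compound was tested at five concentrations on cells cultured in 96-well plates, with a 48-hour exposure period. The concentration for full growth arrest is given as TGI.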

Columns and labels:
Experiment in all cases: NCI anticancer screen, dose series, 48 h
COLO 205 colon = test system: COLO 205 colon
OVCAR-4 ovarian = test system: OVCAR-4 ovarian
SR leukemia = test system: SR leukemia
OVCAR-3 ovarian = test system: OVCAR-3 ovarian
RXF 393 renal = test system: RXF 393 renal
RPMI-8226 leukemia = test system: RPMI-8226 leukemia
MOLT-4 leukemia = test system: MOLT-4 leukemia
HCT-116 colon = test system: HCT-116 colon
HT29 colon = test system: HT29 colon
UO-31 renal = test system: UO-31 renal
OVCAR-5 ovarian = test system: OVCAR-5 ovarian
DU-145 prostate = test system: DU-145 prostate
CCRF-CEM leukemia = test system: CCRF-CEM leukemia
SW-620 colon = test system: SW-620 colon
UACC-62 melanoma = test system: UACC-62 melanoma
HS 578T breast = test system: HS 578T breast

Row | Structure (SMILES) | TGI (COLO 205 colon) | TGI (OVCAR-4 ovarian) | TGI (SR leukemia) | TGI (OVCAR-3 ovarian) | TGI (RXF 393 renal) | TGI (RPMI-8226 leukemia) | TGI (MOLT-4 leukemia) | TGI (HCT-116 colon) | TGI (HT29 colon) | TGI (UO-31 renal) | TGI (OVCAR-5 ovarian) | TGI (DU-145 prostate) | TGI (CCRF-CEM leukemia) | TGI (SW-620 colon) | TGI (UACC-62 melanoma) | TGI (HS 578T breast)
1 | Cc1c(CN2CCOCC2)c(CN2CCOCC2)c(C)n1-c1ccc(Cl)cn1 | > 100 µM | > 100 µM | > 100 µM | > 100 µM | > 100 µM | > 100 µM | > 100 µM | > 100 µM | > 100 µM | > 100 µM | > 100 µM | > 100 µM | > 100 µM | > 100 µM | > 100 µM | > 100 µM
2 | C=C(CN(C)C)C(=O)c1ccccc1 | 3.03 µM | 39.3 µM | > 60.5 µM | 9.9 µM | 6.47 µM | > 66.3 µM | 15.3 µM | 16.7 µM | 24.2 µM | 19.2 µM | 30.4 µM | 30.2 µM | 3.17 µM | 5.07 µM | 30.1 µM | > 100 µM
3 | CSc1ncc2c(C#N)c3n(C)c4ccccc4n3c(=O)c2n1 | > 100 µM | > 100 µM | > 100 µM | > 100 µM | > 100 µM | > 100 µM | > 100 µM | > 100 µM | > 100 µM | > 100 µM | > 100 µM | > 100 µM | > 100 µM | > 100 µM | > 100 µM | > 100 µM
4 | C=CC(=O)C#Cc1cnc(OC)nc1OC | 13.3 µM | 42.3 µM | 6.15 µM | 33.7 µM | > 66.2 µM | 6.93 µM | 4.13 µM | 26.1 µM | > 54.4 µM | 33.5 µM | 33.9 µM | > 100 µM | 2.97 µM | 23.4 µM | 34.4 µM | > 88.3 µM
5 | O=C1NC(=Nc2ccccc2Cl)N/C1=C\c1c(Cl)cccc1Cl | 56.2 µM | 49.3 µM | 48 µM | > 100 µM | 68 µM | 56.6 µM | > 100 µM | 67.1 µM | > 100 µM | 66.3 µM | 83.7 µM | > 100 µM | > 100 µM | > 100 µM | > 100 µM | 99 µM
6 | O=C(NCCc1ccccn1)c1ccc2cc(C(=O)N3CC(CCl)c4ccc([N+](=O)[O-])cc43)[nH]c2c1 (stereo not given) | > 100 µM | 48.3 µM | > 100 µM | 28.2 µM | 60.3 µM | > 100 µM | > 100 µM | > 100 µM | > 100 µM | > 92.8 µM | > 100 µM | > 100 µM | > 100 µM | > 100 µM | > 67.4 µM | > 100 µM
7 | CC(C)=NC(C(=O)O)C(C)(C)S (stereo not given) | > 100 µM | > 100 µM | > 100 µM | > 100 µM | > 100 µM | > 100 µM | > 100 µM | > 100 µM | > 100 µM | > 100 µM | > 100 µM | > 100 µM | > 100 µM | > 100 µM | > 100 µM | > 100 µM
8 | CNc1ccc(C)cc1S(=O)(=O)c1ccccc1[N+](=O)[O-] | > 100 µM | 92 µM | > 100 µM | > 100 µM | > 100 µM | > 100 µM | > 100 µM | > 100 µM | > 100 µM | > 100 µM | > 100 µM | > 100 µM | > 100 µM | > 100 µM | > 100 µM | > 100 µM
9 | CC(O)C1(O)C(O)CC(OC2c3cc4c(c(O)c3[C@@H]3C[C@@]2(C)OC32C=c3cc[nH]c3=N2)C(=O)c2cccc(O)c2C4=O)OC1C (stereo not given in full) | 1.97 µM | 7.2 µM | 2.36 µM | 6.45 µM | 2.31 µM | 4.88 µM | 2.67 µM | 3.31 µM | 2.68 µM | 8.44 µM | 9.49 µM | 8.8 µM | 1.72 µM | 5.96 µM | 3.18 µM | 5.87 µM
10 | COC1=CC(=O)C2=C(C1=O)[C@H]1CC[C@]3(C)C(=O)CC[C@H]3[C@@H]1CC2 | > 100 µM | 29.5 µM | > 100 µM | 52.3 µM | 67.8 µM | 81.3 µM | > 100 µM | 34.1 µM | 75.3 µM | 56.8 µM | 44.6 µM | 57.1 µM | 26.9 µM | 67.7 µM | > 100 µM | 70.5 µM
11 | O=c1c2c3c(sc2nc2n1sc1nc4sc5c(c4c(=O)n12)CCCC5)CCCC3 | 64.7 µM | 37.2 µM | > 84.9 µM | > 62.5 µM | 38.5 µM | > 63.2 µM | > 66.9 µM | > 100 µM | > 58.8 µM | 43.9 µM | > 100 µM | > 74.3 µM | 60.7 µM | 63.5 µM | > 100 µM | > 100 µM
12 | COC(=O)NCCc1[nH]nc2c1C(=O)C=C(Nc1ccccc1OC)C2=O | 61.6 µM | 57.7 µM | 86.1 µM | > 100 µM | > 100 µM | > 100 µM | 55.1 µM | 38.1 µM | > 100 µM | > 100 µM | > 100 µM | > 100 µM | 88.9 µM | 47.8 µM | 39.9 µM | 99.7 µM
13 | CC(NC1=NCCO1)c1ccsc1 (stereo not given) | 35.3 µM | > 100 µM | 99.6 µM | 80.3 µM | 85.8 µM | 59.9 µM | 52.3 µM | 34.1 µM | 42.7 µM | > 100 µM | > 100 µM | > 100 µM | 46.5 µM | 43.9 µM | 34.3 µM | 33.9 µM
14 | CCc1n[nH]c(=O)n1-n1c(C)ccc1C | > 100 µM | > 100 µM | > 100 µM | > 100 µM | > 100 µM | > 100 µM | > 100 µM | > 100 µM | > 100 µM | > 100 µM | > 100 µM | > 100 µM | > 100 µM | > 100 µM | > 100 µM | > 100 µM
15 | NC(=S)NN=Cc1ccccc1OCc1cccc(COc2ccccc2C=NNC(N)=S)n1 | > 100 µM | > 100 µM | > 100 µM | > 100 µM | 10.9 µM | > 100 µM | > 100 µM | > 93.6 µM | > 100 µM | > 93.5 µM | > 100 µM | > 45.6 µM | > 100 µM | > 100 µM | > 100 µM | > 100 µM
16 | O=[N+]([O-])c1ccccc1S(=O)(=O)c1cccc2c1NCCC2 | > 100 µM | > 100 µM | > 100 µM | > 100 µM | > 100 µM | > 100 µM | > 100 µM | > 100 µM | > 100 µM | > 100 µM | > 100 µM | > 100 µM | > 100 µM | > 100 µM | > 100 µM | > 100 µM
17 | COC(=O)C1=C(N)C2=C(N)Oc3ccccc3C2CC1=C(C#N)C#N (stereo not given) | 44.1 µM | 76.1 µM | > 100 µM | > 100 µM | > 100 µM | 48.6 µM | > 100 µM | 99.2 µM | 53.3 µM | 53.6 µM | 81.7 µM | 61.9 µM | > 100 µM | > 100 µM | 36.3 µM | 97.9 µM
18 | CN1CCOC1(C)c1ccccc1 (stereo not given) | > 100 µM | > 100 µM | > 100 µM | > 100 µM | > 100 µM | > 100 µM | > 100 µM | > 100 µM | > 100 µM | > 100 µM | > 100 µM | > 100 µM | > 100 µM | > 100 µM | > 100 µM | > 100 µM
19 | C=C(Cl)[C@](Cl)(CBr)CC[C@@H](Br)C(C)(C)Cl | 3.41 µM | 3.44 µM | 25.5 µM | 1.58 µM | 0.576 µM | 0.363 µM | 31.9 µM | 1.38 µM | 2.06 µM | 2.41 µM | 2.98 µM | 2.74 µM | 46.6 µM | 5.03 µM | 19.3 µM | 1.41 µM
20 | Cc1cc(N(C)c2ccccc2)nc(N(C)c2ccccc2)n1 | 49.1 µM | > 100 µM | 55.5 µM | 70.4 µM | 59.5 µM | 65.1 µM | 99.9 µM | 37.6 µM | 39 µM | > 100 µM | 52.6 µM | > 100 µM | 46.5 µM | > 100 µM | > 100 µM | > 100 µM
